Test results from ChEMBL document CHEMBL3994564 (Medchemcomm, 2016).
In brackets after ≈: the same amount, converted by molar mass.

How the values were obtained:
Escherichia coli = experiment: Antibacterial activity against Escherichia coli ATCC 25922 after 24 hrs by MTT assay; assay type: functional; settings: ATCC 25922, 24 h
Pseudomonas aeruginosa = experiment: Antibacterial activity against Pseudomonas aeruginosa ATCC 27853 after 24 hrs by MTT assay; assay type: functional; settings: ATCC 27853, 24 h
Staphylococcus aureus = experiment: Antibacterial activity against Staphylococcus aureus ATCC 6538 after 24 hrs by MTT assay; assay type: functional; settings: ATCC 6538, 24 h
Bacillus subtilis = experiment: Antibacterial activity against Bacillus subtilis ATCC 530 after 24 hrs by MTT assay; assay type: functional; settings: ATCC 530, 24 h
[1] = biological target: T1, Beta-ketoacyl-[acyl-carrier-protein] synthase III (Escherichia coli K-12, UniProt P0A6R0); experiment: Inhibition of Escherichia coli FabH expressed in Escherichia coli DH10B using holo-ACP/acetyl-CoA as substrate assessed as incorporation of [3H] signal in final product preincubated with holo-ACP for 1 hr followed by acetyl-CoA addition measured after 25 mins by liquid scintillation counting method
T1 sequence (P0A6R0 whole entry): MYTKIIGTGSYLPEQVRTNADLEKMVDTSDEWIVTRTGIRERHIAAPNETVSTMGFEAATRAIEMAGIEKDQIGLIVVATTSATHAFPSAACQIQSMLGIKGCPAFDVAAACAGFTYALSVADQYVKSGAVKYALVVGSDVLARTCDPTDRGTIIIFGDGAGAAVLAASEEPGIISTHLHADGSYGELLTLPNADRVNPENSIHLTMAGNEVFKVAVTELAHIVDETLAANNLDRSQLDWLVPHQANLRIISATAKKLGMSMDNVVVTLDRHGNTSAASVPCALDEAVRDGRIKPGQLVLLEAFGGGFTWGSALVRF

NIH3T3 = experiment: Cytotoxic activity against mouse NIH/3T3 cells after 24 hrs by MTT assay; assay type: cell-based; settings: NIH3T3, 24 h

Row | SMILES | MIC (Escherichia coli) [µg/mL] | MIC (Pseudomonas aeruginosa) [µg/mL] | MIC (Staphylococcus aureus) [µg/mL] | MIC (Bacillus subtilis) [µg/mL] | IC50 [1] [µM] | IC50 (NIH3T3) [µM]
1 | Cc1ccc(/C=N/NC(=O)c2ccc3c(c2)OCCCO3)cc1 | 50 (≈ 161 µM) | 50 (≈ 161 µM) | > 100 | 50 (≈ 161 µM) | – | –
2 | COc1ccc(/C=N/NC(=O)c2ccc3c(c2)OCCCO3)cc1 | 25 (≈ 76.6 µM) | 12.5 (≈ 38.3 µM) | 25 (≈ 76.6 µM) | 50 (≈ 153 µM) | 24.1 | 132
3 | Cc1ccc(/C=N/NC(=O)c2ccc3c(c2)OCCCO3)o1 | > 100 | > 100 | > 100 | > 100 | – | –
4 | O=C(N/N=C/c1ccccc1Cl)c1ccc2c(c1)OCCCO2 | 25 (≈ 75.6 µM) | 50 (≈ 151 µM) | 50 (≈ 151 µM) | > 100 | – | –
5 | O=C(N/N=C/c1ccc(F)cc1)c1ccc2c(c1)OCCCO2 | 12.5 (≈ 39.8 µM) | 25 (≈ 79.5 µM) | 25 (≈ 79.5 µM) | 50 (≈ 159 µM) | 32.5 | 126
6 | O=C(N/N=C/c1ccc(C(F)(F)F)cc1)c1ccc2c(c1)OCCCO2 | 25 (≈ 68.6 µM) | 12.5 (≈ 34.3 µM) | 12.5 (≈ 34.3 µM) | 25 (≈ 68.6 µM) | 12.4 | 104
7 | O=C(N/N=C/c1ccc([N+](=O)[O-])cc1)c1ccc2c(c1)OCCCO2 | 25 (≈ 73.2 µM) | 25 (≈ 73.2 µM) | 50 (≈ 146 µM) | 25 (≈ 73.2 µM) | 17.6 | 185
8 | O=C(N/N=C/c1ccccc1)c1ccc2c(c1)OCCCO2 | 50 (≈ 169 µM) | 50 (≈ 169 µM) | > 100 | > 100 | – | –
9 | O=C(N/N=C/c1cc([N+](=O)[O-])ccc1F)c1ccc2c(c1)OCCCO2 | 6.25 (≈ 17.4 µM) | 12.5 (≈ 34.8 µM) | 12.5 (≈ 34.8 µM) | 12.5 (≈ 34.8 µM) | 9.5 | 168
10 | O=C(N/N=C/c1ccc(-c2ccccc2)cc1)c1ccc2c(c1)OCCCO2 | 3.13 (≈ 8.4 µM) | 6.25 (≈ 16.8 µM) | 12.5 (≈ 33.6 µM) | 6.25 (≈ 16.8 µM) | 4.7 | 146
11 | O=C(N/N=C/c1ccccc1O)c1ccc2c(c1)OCCCO2 | 50 (≈ 160 µM) | 50 (≈ 160 µM) | 25 (≈ 80 µM) | 12.5 (≈ 40 µM) | – | –
12 | COc1ccc(/C=N/NC(=O)c2ccc3c(c2)OCCCO3)cc1OC | 3.13 (≈ 8.78 µM) | 3.13 (≈ 8.78 µM) | 6.25 (≈ 17.5 µM) | 3.13 (≈ 8.78 µM) | 4.1 | 126
13 | O=C(N/N=C/c1ccccc1Br)c1ccc2c(c1)OCCCO2 | 50 (≈ 133 µM) | 25 (≈ 66.6 µM) | 50 (≈ 133 µM) | 25 (≈ 66.6 µM) | – | –
14 | O=C(N/N=C/c1c(F)cccc1Cl)c1ccc2c(c1)OCCCO2 | 12.5 (≈ 35.8 µM) | 25 (≈ 71.7 µM) | 25 (≈ 71.7 µM) | 50 (≈ 143 µM) | 20.6 | 164
15 | CN(C)c1ccc(/C=N/NC(=O)c2ccc3c(c2)OCCCO3)c(O)c1 | 12.5 (≈ 35.2 µM) | 12.5 (≈ 35.2 µM) | 25 (≈ 70.3 µM) | 50 (≈ 141 µM) | 6.7 | 203
16 | O=C(N/N=C/c1ccc(O)c(O)c1)c1ccc2c(c1)OCCCO2 | 12.5 (≈ 38.1 µM) | 12.5 (≈ 38.1 µM) | 25 (≈ 76.1 µM) | 25 (≈ 76.1 µM) | 7.8 | 102
17 | O=C(N/N=C/C=C/c1ccccc1)c1ccc2c(c1)OCCCO2 | 50 (≈ 155 µM) | 25 (≈ 77.6 µM) | > 100 | 50 (≈ 155 µM) | – | –
18 | O=C(N/N=C/c1cccc2ccccc12)c1ccc2c(c1)OCCCO2 | 3.13 (≈ 9.04 µM) | 6.25 (≈ 18 µM) | 6.25 (≈ 18 µM) | 6.25 (≈ 18 µM) | 5.2 | 130
19 | COc1cc(/C=N/NC(=O)c2ccc3c(c2)OCCCO3)cc(OC)c1O | 3.13 (≈ 8.41 µM) | 6.25 (≈ 16.8 µM) | 6.25 (≈ 16.8 µM) | 3.13 (≈ 8.41 µM) | 3.9 | 147

Row | SMILES | MIC (Escherichia coli) [µg/mL] | MIC (Pseudomonas aeruginosa) [µg/mL] | MIC (Staphylococcus aureus) [µg/mL] | MIC (Bacillus subtilis) [µg/mL] | IC50 [1] [µM] | IC50 (NIH3T3) [µM]
20 | O=Cc1ccccc1/C=N/NC(=O)c1ccc2c(c1)OCCCO2 | 25 (≈ 77.1 µM) | 25 (≈ 77.1 µM) | 25 (≈ 77.1 µM) | 50 (≈ 154 µM) | – | –
21 | O=C(N/N=C/c1ccc(Cl)c([N+](=O)[O-])c1)c1ccc2c(c1)OCCCO2 | 3.13 (≈ 8.33 µM) | 6.25 (≈ 16.6 µM) | 6.25 (≈ 16.6 µM) | 3.13 (≈ 8.33 µM) | 4.4 | 147
22 | O=C(N/N=C/c1ccc(I)cc1)c1ccc2c(c1)OCCCO2 | 25 (≈ 59.2 µM) | 25 (≈ 59.2 µM) | 6.25 (≈ 14.8 µM) | 12.5 (≈ 29.6 µM) | 6.9 | 201
23 | NC[C@H]1O[C@H](O[C@H]2[C@H](O)[C@@H](O[C@H]3O[C@H](CO)[C@@H](O)[C@H](N)[C@H]3O)[C@H](N)C[C@@H]2N)[C@H](N)[C@@H](O)[C@@H]1O [BEKANAMYCIN] | 3.13 (≈ 6.47 µM) | 3.13 (≈ 6.47 µM) | 1.56 (≈ 3.23 µM) | 1.56 (≈ 3.23 µM) | 5.6 | –
24 | O=C(N/N=C/c1cccs1)c1ccc2c(c1)OCCCO2 | > 100 | > 100 | > 100 | > 100 | – | –
25 | Cc1ccccc1/C=N/NC(=O)c1ccc2c(c1)OCCCO2 | > 100 | 50 (≈ 161 µM) | > 100 | > 100 | – | –
26 | O=C(N/N=C/c1cc(Cl)ccc1O)c1ccc2c(c1)OCCCO2 | 12.5 (≈ 36 µM) | 25 (≈ 72.1 µM) | 50 (≈ 144 µM) | 25 (≈ 72.1 µM) | 13.2 | 111
27 | C(=N\C1CCCCC1)/c1ccc2c(c1)OCCCO2 | – | – | – | – | 1.6 | –
28 | Cc1cccc(/C=N/NC(=O)c2ccc3c(c2)OCCCO3)c1 | 50 (≈ 161 µM) | 25 (≈ 80.6 µM) | > 100 | 50 (≈ 161 µM) | – | –
29 | CN(C)c1ccc(/C=N/NC(=O)c2ccc3c(c2)OCCCO3)cc1 | 6.25 (≈ 18.4 µM) | 12.5 (≈ 36.8 µM) | 6.25 (≈ 18.4 µM) | 6.25 (≈ 18.4 µM) | 7.2 | 135
30 | O=C(N/N=C/c1cc(Cl)cc(Cl)c1O)c1ccc2c(c1)OCCCO2 | 12.5 (≈ 32.8 µM) | 6.25 (≈ 16.4 µM) | 12.5 (≈ 32.8 µM) | 6.25 (≈ 16.4 µM) | 5.4 | 184
31 | O=C(N/N=C/c1ccc(F)c([N+](=O)[O-])c1)c1ccc2c(c1)OCCCO2 | 12.5 (≈ 34.8 µM) | 6.25 (≈ 17.4 µM) | 6.25 (≈ 17.4 µM) | 6.25 (≈ 17.4 µM) | 5.1 | 131
32 | O=C(N/N=C/c1ccc(O)cc1)c1ccc2c(c1)OCCCO2 | 50 (≈ 160 µM) | 25 (≈ 80 µM) | 12.5 (≈ 40 µM) | 25 (≈ 80 µM) | 38.7 | 178
33 | O=C(N/N=C/c1ccc2ccccc2c1)c1ccc2c(c1)OCCCO2 | 6.25 (≈ 18 µM) | 3.13 (≈ 9.04 µM) | 6.25 (≈ 18 µM) | 3.13 (≈ 9.04 µM) | 4.6 | 114
34 | O=C(N/N=C/c1ccc(O)c([N+](=O)[O-])c1)c1ccc2c(c1)OCCCO2 | 6.25 (≈ 17.5 µM) | 12.5 (≈ 35 µM) | 25 (≈ 70 µM) | 12.5 (≈ 35 µM) | 8.9 | 198
35 | O=C(N/N=C/c1cc([N+](=O)[O-])ccc1O)c1ccc2c(c1)OCCCO2 | 6.25 (≈ 17.5 µM) | 3.13 (≈ 8.76 µM) | 6.25 (≈ 17.5 µM) | 3.13 (≈ 8.76 µM) | 3.5 | 157
36 | COc1cc(/C=N/NC(=O)c2ccc3c(c2)OCCCO3)cc(OC)c1OC | 1.56 (≈ 4.04 µM) | 3.13 (≈ 8.1 µM) | 3.13 (≈ 8.1 µM) | 1.56 (≈ 4.04 µM) | 2 | 120
37 | O=C(N/N=C/c1cc([N+](=O)[O-])ccc1Cl)c1ccc2c(c1)OCCCO2 | 3.13 (≈ 8.33 µM) | 3.13 (≈ 8.33 µM) | 3.13 (≈ 8.33 µM) | 6.25 (≈ 16.6 µM) | 3.9 | 172
38 | O=C(N/N=C/c1ccc(Cl)cc1Cl)c1ccc2c(c1)OCCCO2 | 6.25 (≈ 17.1 µM) | 6.25 (≈ 17.1 µM) | 6.25 (≈ 17.1 µM) | 12.5 (≈ 34.2 µM) | 4.3 | 198
